Key:
[1] = tested on: TrxR in MDA-MB-453 cells; test: Endogenous TrxR activity in cell lysates (DTNB reduction assay); type: cell-based, human; details: MDA-MB-453 cells without GSH depletion
[2] = tested on: JNK, p38MAPK in MDA-MB-453 cells; test: Cell death signaling western blots (phospho-JNK, phospho-p38MAPK); details: MDA-MB-453, 100 μM
Protocol: Cells extracts were analyzed by SDS-PAGE either under reducing conditions or under non-reducing conditions in the case of Trx blot followed by blots anti-phospho-JNK, anti-phospho-p38MAPK, anti-cleaved-PARP and anti-Trx. Results are representative of three independent experiments.
After 2 h at 4° C., lysates were clarified by centrifugation and protein amounts were measured using the BCA assay (Pierce, Thermo scientific).
Equal amounts of proteins were resolved by SDS-PAGE under either non-reducing or reducing (5% 2-mercaptoethanol, 20 min at 60° C.) conditions, using 4-20% gels (Novex, Invitrogen), then subjected to semi-dry electrophoretic transfer onto nitrocellulose membranes.

[3] = tested on: cytosol and mitochondria of HCT116 cells; test: Subcellular fractionation: Iniparib-biotin labeling of cytosol and mitochondria; type: cell-based, human
Protocol: Cells were homogenized in an ice-cold buffer containing 10 mM Tris-HCl, pH 7.5, protease and phosphatase inhibitors, and 250 mM sucrose in the case of mitochondria preparation, using a glass dounce tissue grinder (30 strokes). After centrifugation at 1,000×g for 5 min at 4° C., homogenates supernatants were collected. For cytosol preparation the 1000×g supernatants were submitted to differential centrifugation in Tris-HCl buffer: a first centrifugation was carried out at 22,000×g for 20 min and the resulting supernatants were further centrifuged at 100,000×g for 60 min. The final supernatants were referred to as the cytosolic fractions.
FIG. 11A and FIG. 11B show HCT116 cells were pre-treated or not for 48 h with 1 mM BSO. Thereafter Iniparib-biotin at 100 μM was added for 4 h. Cell homogenates were then processed for cytosol preparation (FIG. 11A) or mitochondria immuno-purification (FIG. 11B).
Cell homogenates were then processed for cytosol preparation or mitochondria immuno-purification. […]

[4] = tested on: HCT116 cells; test: Protein modification by Iniparib-biotin in cells (streptavidin-HRP blot, avidin pull-down LC-MS/MS); type: cell-based, human
Protocol: MDA-MB-453 and HCT116 cells were first pre-treated or not for 48 h with 1 mM BSO. Afterwards cells were incubated in serum-containing conditioned medium with increasing concentrations of Iniparib-biotin derivative for up to 4 hours.
Membranes were blotted with either Streptavidin-HRP (GE Healthcare), monoclonal antibody against GAPDH (Santa Cruz Biotechnology), polyclonal antibody raised against GSTP1 (Santa Cruz Biotechnology) or with MitoProfile® Total OXPHOS human antibody cocktail (Abcam). Detection of reactive bands was performed by enhanced chemiluminescence (West DURA substrate, Pierce, Thermo scientific).
BSO pretreated HCT116 cells were incubated for 4 h with 100 μM Iniparib-biotin. Then clarified octyl-glucoside lysates were combined with monomeric avidin-agarose and mixed overnight at 4° C. […] Final wash was performed with 0.15% octyl-glucoside, 50 mM NaCl, 10 mM Tris-HCl, pH 7.5 prior to Iniparib-biotin modified proteins' elution in 0.1 M glycine, pH 2.8, 20 min at 20° C. After pH adjustment to 8.5 by Ammonium Bicarbonate addition (50 mM final), eluted proteins were reduced (10 mM DTT, 30 min at 56° C.), alkylated (30 mM iodoacetamide, 30 min at 20° C.) and digested with trypsin (10 μg, overnight at 37° C.). Tryptic Iniparib-biotin modified peptides were further purified by monomeric avidin pull-down as described above except that the buffer used was 50 mM NaCl, 10 mM Tris-HCl, pH 7.5. After elution in 0.1 M glycine, pH 2.8, 20 min at 20° C., enriched Iniparib-biotin modified peptides were analyzed by LC-MS/MS. LC-MS/MS experiments were performed on a NanoAcquity UPLC (Waters) coupled to a hybrid LTQ Orbitrap Velos mass spectrometer (Thermo Fisher Scientific) equipped with a nanoelectrospray source. Tryptic digests were loaded onto an UPLC Trap column (Symmetry C18, 5 μm, 180 μm×20 mm, Waters) and washed with 0.2% formic acid at 20 μL/min for 5 min. […] The exact parent mass is the ^12C isotope ion mass of the most intense isotopic pattern detected on the high resolution Orbitrap MS parallel scan and included in the MS/MS selection window.

| SMILES | TrxR reductase activity [1] | JNK activation, time of peak [2] | in vitro labeling of isolated cytosolic fraction ([3]; 30 μM Iniparib-biotin, with or without NADH/NADPH) | protein targets in isolated cytosol and mitochondria ([3]; fractions from Iniparib-biotin treated HCT116 cells) | cellular proteins bearing Iniparib adducts ([4]; BSO pretreated HCT116, 100 μM 4 h, MS/MS qualitative analysis) | protein labeling with Iniparib-biotin ([4]; HCT116 cells depleted of GSH, up to 100 μM, up to 4 h) | protein modifications by Iniparib-biotin ([4]; HCT116 cells not depleted of GSH) |
| --- | --- | --- | --- | --- | --- | --- | --- |
| NC(=O)c1ccc(I)c([N+](=O)[O-])c1 [Iniparib, 4-iodo-3-nitrobenzamide] | reductase activity inhibition | 10 h | – | – | – | – | – |
| O=C(CCCC[C@@H]1SC[C@@H]2NC(=O)N[C@@H]21)NCCNC(=O)c1ccc(I)c([N+](=O)[O-])c1 [Iniparib-biotin, 4-iodo-3-nitro-N-(2-(5-((3 aS,4S,6aR)-2-oxohexahydro-1H-thieno[3,4-d]imidazol-4-yl)pentanamido)ethyl)benzamide] | – | – | mainly when NADPH was added | present in both cell compartments | more than 200 cellular proteins | strong protein labeling | barely detectable |
